This note sets out measurements from US20200087248A1, “Fluoroallylamine Derivative And Use Thereof” (SICHUAN KELUN-BIOTECH BIOPHARMACEUTICAL CO., LTD., priority 2017, published 2020).

One may read the IC50 as the concentration that inhibits the measured activity by half.

Counter-ions that a name gives are not always drawn.

Experiment [1] deals with T1, VAP-1 (Homo sapiens, UniProt Q16853).
T1 construct: purchased R&D Systems
T1 sequence (Q16853 1-763): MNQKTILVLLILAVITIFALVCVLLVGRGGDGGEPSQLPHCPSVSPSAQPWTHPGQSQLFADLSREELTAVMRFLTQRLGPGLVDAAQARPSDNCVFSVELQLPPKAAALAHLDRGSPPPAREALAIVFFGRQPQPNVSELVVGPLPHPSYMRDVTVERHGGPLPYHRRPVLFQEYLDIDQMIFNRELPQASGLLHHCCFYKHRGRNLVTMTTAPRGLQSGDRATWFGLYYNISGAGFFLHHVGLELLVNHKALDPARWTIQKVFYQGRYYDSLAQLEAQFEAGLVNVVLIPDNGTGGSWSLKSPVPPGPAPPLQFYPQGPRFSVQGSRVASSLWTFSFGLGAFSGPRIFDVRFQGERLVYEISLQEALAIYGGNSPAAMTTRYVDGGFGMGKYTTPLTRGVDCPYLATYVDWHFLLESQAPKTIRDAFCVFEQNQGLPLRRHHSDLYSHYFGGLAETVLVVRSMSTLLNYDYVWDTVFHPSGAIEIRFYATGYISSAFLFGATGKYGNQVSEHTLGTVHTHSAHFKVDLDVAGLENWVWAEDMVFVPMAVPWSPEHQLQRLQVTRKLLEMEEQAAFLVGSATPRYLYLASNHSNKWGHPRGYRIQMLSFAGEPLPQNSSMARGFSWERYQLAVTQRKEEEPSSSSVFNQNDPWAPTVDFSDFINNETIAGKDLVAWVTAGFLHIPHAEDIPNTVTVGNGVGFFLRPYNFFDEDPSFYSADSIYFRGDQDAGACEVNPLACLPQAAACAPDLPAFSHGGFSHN
Nature of the experiment: Inhibition of the enzymatic activity of VAP-1 in vitro (Amplex Red). Type of experiment: biochemical. Conditions: VAP-1 protein about 20 nM, 10 min pre-incubation, benzylamine substrate; read-out: IC50, inhibition against the enzymatic activity of VAP-1. The method in brief: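 About 20 nM recombinant VAP-1 preincubated with compound 10 min at RT in 50 mM PBS pH 7.4; reaction started with […] benzylamine, 1 U/mL HRP and 200 μM Amplex Red. Kinetic fluorescence (Ex/Em 540/590 nm) slope gave rate; IC50 by four-parameter fit.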

For experiment [2], the target named is T2, DAO (Homo sapiens, UniProt P19801).
T2 construct: purchased R&D Systems
T2 sequence (P19801 20-751): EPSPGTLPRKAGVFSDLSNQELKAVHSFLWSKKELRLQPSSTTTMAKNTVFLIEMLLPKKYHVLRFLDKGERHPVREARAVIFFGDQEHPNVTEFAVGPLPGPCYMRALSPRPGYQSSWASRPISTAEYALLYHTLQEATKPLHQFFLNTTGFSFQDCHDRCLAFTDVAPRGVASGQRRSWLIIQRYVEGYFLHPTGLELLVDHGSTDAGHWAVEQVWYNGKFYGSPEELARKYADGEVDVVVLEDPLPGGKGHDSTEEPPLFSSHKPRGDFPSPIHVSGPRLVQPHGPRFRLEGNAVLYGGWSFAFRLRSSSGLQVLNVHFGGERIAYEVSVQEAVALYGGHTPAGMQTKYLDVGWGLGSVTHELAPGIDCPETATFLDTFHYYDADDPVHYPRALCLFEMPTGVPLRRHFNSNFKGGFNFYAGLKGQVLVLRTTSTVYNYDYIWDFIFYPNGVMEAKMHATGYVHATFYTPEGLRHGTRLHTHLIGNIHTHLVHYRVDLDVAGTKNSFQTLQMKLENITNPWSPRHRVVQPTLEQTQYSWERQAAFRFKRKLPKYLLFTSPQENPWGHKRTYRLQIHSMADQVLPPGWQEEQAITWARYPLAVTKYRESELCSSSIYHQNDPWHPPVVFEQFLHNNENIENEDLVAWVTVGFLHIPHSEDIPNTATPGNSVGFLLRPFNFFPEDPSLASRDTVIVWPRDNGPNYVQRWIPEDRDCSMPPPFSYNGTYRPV
Put plainly: Inhibition of the enzymatic activity of DAO. Conditions: DAO 15 μg/ml, histamine substrate; read-out: IC50, inhibition against the enzymatic activity of DAO. Type of experiment: biochemical. The procedure: Inhibition Experiment Against the Enzymatic Activity of DAO (Diamine Oxidase)
1. Test kit: Amplex® Red Monoamine Oxidase Assay, Manufacturer: ThermoFisher
Protein: DAO, manufacturer: R&D Systems
DAO protein (15 μg/ml) and different concentrations of the test compound were pre-incubated at room temperature for 20 minutes, and then 100 μM Histamine-dihydrochloride, 1 U/mL HRP and 200 μM Amplex Red reagent were added to start the reaction. The inhibition rate of each concentration groups were calculated according to the experimental method of MAO-A.

With `NC/C(=C/F)COc1ccc2c(c1)CCNC2=O` [TM26-Z, (Z)-6-((2-aminomethyl-3-fluoroallyl)oxy)-3,4-dihydroisoquinolin-1(2H)-one trifluoroacetate], in experiment [1], the 50% inhibitory concentration (IC50) was 3.7 ± 0.8 nM.
For “(E)-6-((2-(methylamino)-3-fluoroallyl)oxy)-3,3-dimethyl-3,4-dihydro-isoquinolin-1(2H)-one trifluoroacetate [TM38-E]”, the IC50 in experiment [1] is 4.7 ± 1.1 nM; in experiment [2], more than 1000 nM.
Taken in the same sequence, the figures for `NC/C(=C\F)COc1ccc2c(c1)C(=O)CC2` [TM7-E, (E)-6-((2-aminomethyl-3-fluoroallyl)oxy)-2,3-dihydro-1-indenone trifluoroacetate] were 3 ± 0.7 nM and more than 1000 nM.
For `NC/C(=C\F)COc1ccc(-c2ncccn2)cc1` [TM39-E, (E)-2-(4-(2-pyrimidyl)phenoxymethyl)-3-fluoroallylamine trifluoroacetate], the IC50 in experiment [1] was found to be 1.2 ± 0.2 nM.
Same read-out and setting: as for `CC1(C)Cc2cc(OC/C(=C/F)CN)ccc2C(=O)N1` [HC38-E, (E)-6-((2-(aminomethyl)-3-fluoroallyl)oxy)-3,3-dimethyl-3,4-dihydroisoquinolin-1(2H)-one hydrochloride], the figure is 2.85 ± 0.3 nM.
For the compound `NC/C(=C\F)COc1ccc(C(=O)NC2CCOCC2)cc1` [TM76-E, (E)-N-(tetrahydro-2H-pyran-4-yl)-4-((2-aminomethyl-3-fluoroallyl)oxy)-benzamide trifluoroacetate], the values for the half-inhibitory concentration (IC50) in experiment [1] and in experiment [2] were 4.3 ± 0.6 nM and more than 100 nM, respectively.
With `NC/C(=C/F)COc1ccc(C(=O)NCc2ccccn2)cc1` [TM112-Z, (Z)-4-((2-aminomethyl-3-fluoroallyl)oxy)-N-(pyridin-2-ylmethyl)benzamide trifluoroacetate], the figures for the IC50 in experiment [1] and in experiment [2] were 6.5 ± 1.8 nM and more than 100 nM, respectively.
Taken in the same sequence, the figures for “(E)-6-((2-(methylamino)-3-fluoroallyl)oxy)-2-methyl-3,4-dihydroisoquinolin-1(2H)-one trifluoroacetate [TM66-E]” were 2 ± 0.4 nM and more than 100 nM.
`NC/C(=C\F)COc1ccc(C(=O)Nc2ccccc2)cc1` [TM1-E, (E)-N-phenyl-4-((2-aminomethyl-3-fluoroallyl)oxy)-benzamide trifluoroacetate]: the IC50 in experiment [1] was 1.6 ± 0.2 nM; in experiment [2] it was more than 100 nM.
